Test results from patent US5162538A, “Antiviral new peptides” (Bayer Aktiengesellschaft, priority 1989, dated 1992).

Assays:
HIV protease = biological target: T1, HIV protease (Human immunodeficiency virus type 1 group M subtype B, UniProt P04585); assay: HIV-specific protease enzyme test (RP-HPLC analysis of synthetic peptide cleavage); assay type: biochemical; details: purified HIV protease incubated with synthetic peptide imitating a Gag-precursor cleavage site; 50% inhibition of protease activity
T1 construct: purified HIV protease was incubated with synthetic peptide
Description: The compounds of the general formula (I) have extraordinarily strong action against retroviruses. This was proven by experiments using the HIV-specific protease enzyme test.
The result of the example below was obtained using the HIV-test system described in the following reference [cf. Hansen, J., Billich, S., Schulze, T., Sukrow, S. and Molling, K. (1988), EMBO Journal, Vol. 7, No. 6, pp. 1785-1791]: purified HIV protease was incubated with synthetic peptide which imitates a cleavage site in the Gag-precursor protein and represents an in vivo cleavage site of HIV protease. The resulting cleavage products of the synthetic peptide were analyzed by reverse-phase high performance liquid chromatography (RP-HPLC). The IC50 value relates to the substance concentration which causes 50% inhibition of protease activity under the abovementioned test conditions.

Visna virus = Visna virus test in infected cell culture (cytopathic effect); assay type: cell-based; details: sheep fibroblast cells infected with Visna virus, MOI approx. 0.05, 7 days at 37° C., non-cytotoxic concentrations
Description: This was shown by way of example for the Visna virus.
The Visna virus and the HIV virus both belong to the retrovirus subfamily of lentiviruses.
In cell cultures which are infected with Visna virus, pronounced, virus-induced, cytopathic effects appear 5 to 10 days after infection. By treating the infected cell cultures with compounds according to the invention, it was possible to prevent the appearance of these cytopathic effects.
The Visna virus test was carried out according to the method of O. Narayan et al., Journal of Infectious Diseases 135, 5, 1977, 800-806. For this, a compound according to the invention was diluted to non-cytotoxic concentrations in the culture medium in 96-well microtiter plates. Sheep fibroblast cells (5×10^4 cells per well) in production medium were then added to each well. Each well then received 15 μl of a Visna virus solution having a titer of approx. 2.5×10^4 TCID50 (TCID=tissue culture infections dose). This virus dose corresponds to a MOI (multiplicity of infection) of approx. 0.05.
Under these infection conditions, a virus-induced, cytopathic effect resulted between day 5 and day 10 in an infection control without substance. The infected and treated cells and the control cells were incubated for 7 days at 37° C. and 5% CO2. […]

**Q.** Which IC50 (HIV protease) does the source give for “Nα-{Nδ-[1-(1-oxo)ethyl-[1-(5-S-amino-6-cyclohexyl-4-S-hydroxy-2-(1-methyl)ethylhexanoyl)]]-S-isoleucinyl}-2-pyridylmethylamide [Example I]” here?
**A.** Its IC50 is 0.5 nM.

**Q.** And the “protection from virus-induced cytopathic effect / cell destruction” value (Visna virus)?
**A.** The value was “protected the cells infected with Visna virus from the virus-induced cell destruction”.
